# System: yeast genes (expressed mRNA)
# Experiment: DNA chip measurement of expressed mRNA of yeast genes after culture with a toxic chemical substance
# Assay type: cell-based, Saccharomyces cerevisiae S288C
# Method in brief: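 S. cerevisiae S288C grown at 25 °C in YPD, exposed in log phase for 2 h to a toxicant at growth-inhibiting, non-lethal concentration. Cy3/Cy5-labelled cDNA from poly(A) mRNA hybridized to whole-genome chip at 65 °C >12 h. Ratio to untreated control, ≥2 significant.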
smiles,measurement,setting,value
"C[S+](C)[O-] [(15), Dimethyl sulfoxide]","The level of expressed mRNA in the presence of chemical substance/The level of expressed mRNA in the absence of chemical substance, yeast gene YDL067C","gene YDL067C (mitochondria-located protein gene), yeast cultured two hours with chemical substance, DNA chip fluorescence ratio to control",0.7
same,"The level of expressed mRNA in the presence of chemical substance/The level of expressed mRNA in the absence of chemical substance, yeast gene YDR079W","gene YDR079W (mitochondria-located protein gene), yeast cultured two hours with chemical substance, DNA chip fluorescence ratio to control",0.6
same,"The level of expressed mRNA in the presence of chemical substance/The level of expressed mRNA in the absence of chemical substance, yeast gene YGR062C","gene YGR062C (mitochondria-located protein gene), yeast cultured two hours with chemical substance, DNA chip fluorescence ratio to control",0.5
same,"The level of expressed mRNA in the presence of chemical substance/The level of expressed mRNA in the absence of chemical substance, yeast gene YJL096W","gene YJL096W (mitochondria-located protein gene), yeast cultured two hours with chemical substance, DNA chip fluorescence ratio to control",1.0
same,"The level of expressed mRNA in the presence of chemical substance/The level of expressed mRNA in the absence of chemical substance, yeast gene YJL180C","gene YJL180C (mitochondria-located protein gene), yeast cultured two hours with chemical substance, DNA chip fluorescence ratio to control",0.6
same,level of expressed mRNA in the presence of chemical substance / level in the absence of chemical substance,"yeast gene YAL018C, cultured two hours with the chemical substance",6.9
same,level of expressed mRNA in the presence of chemical substance / level in the absence of chemical substance,"yeast gene YAR047C, cultured two hours with the chemical substance",0.5
same,level of expressed mRNA in the presence of chemical substance / level in the absence of chemical substance,"yeast gene YAR064W, cultured two hours with the chemical substance",1.9
same,level of expressed mRNA in the presence of chemical substance / level in the absence of chemical substance,"yeast gene YBL044W, cultured two hours with the chemical substance",0.7
same,level of expressed mRNA in the presence of chemical substance / level in the absence of chemical substance,"yeast gene YBR012C, cultured two hours with the chemical substance",1.1
same,The level of expressed mRNA in the presence of chemical substance/The level of expressed mRNA in the absence of chemical substance,"yeast gene YBR047W, cultured two hours with substance",0.8
same,level of expressed mRNA in the presence of chemical substance / level in the absence of chemical substance,"yeast gene YBR066C, cultured two hours with the chemical substance",0.4
same,The level of expressed mRNA in the presence of chemical substance/The level of expressed mRNA in the absence of chemical substance,"yeast gene YBR100W, cultured two hours with the chemical substance",1.3
same,level of expressed mRNA in the presence of chemical substance / level in the absence of chemical substance,"yeast gene YBR124W, cultured two hours with the chemical substance",1.0
same,level of expressed mRNA in the presence of chemical substance / level in the absence of chemical substance,"yeast gene YBR162C, cultured two hours with the chemical substance",1.9
same,The level of expressed mRNA in the presence of chemical substance/The level of expressed mRNA in the absence of chemical substance,"yeast gene YBR273C, cultured two hours with substance",0.8
same,level of expressed mRNA in the presence of chemical substance / level in the absence of chemical substance,"yeast gene YBR287W, cultured two hours with the chemical substance",1.3
same,The level of expressed mRNA in the presence of chemical substance/The level of expressed mRNA in the absence of chemical substance,yeast gene YCL009C,6.5
same,The level of expressed mRNA in the presence of chemical substance/The level of expressed mRNA in the absence of chemical substance,"yeast gene YCL040W, cultured for two hours with substance",3.4
same,The level of expressed mRNA in the presence of chemical substance/The level of expressed mRNA in the absence of chemical substance,"yeast gene YCL049C, cultured two hours with substance",1.4
same,level of expressed mRNA in the presence of chemical substance / level in the absence of chemical substance,"yeast gene YCL056C, cultured two hours with the chemical substance",1.7
same,level of expressed mRNA in the presence of chemical substance / level in the absence of chemical substance,"yeast gene YCR007C, cultured two hours with the chemical substance",0.8
same,The level of expressed mRNA in the presence of chemical substance/The level of expressed mRNA in the absence of chemical substance,"yeast gene YCR030C, cultured two hours with the chemical substance",1.3
same,The level of expressed mRNA in the presence of chemical substance/The level of expressed mRNA in the absence of chemical substance,"yeast gene YCR082W, cultured two hours with substance",1.6
same,The level of expressed mRNA in the presence of chemical substance/The level of expressed mRNA in the absence of chemical substance,"yeast gene YCR107W, cultured for two hours with substance",4.8
same,level of expressed mRNA in the presence of chemical substance / level in the absence of chemical substance,"yeast gene YDL046W, cultured two hours with the chemical substance",2.3
same,The level of expressed mRNA in the presence of chemical substance/The level of expressed mRNA in the absence of chemical substance,"yeast gene YDL110C, cultured two hours with substance",1.3
same,The level of expressed mRNA in the presence of chemical substance/The level of expressed mRNA in the absence of chemical substance,"yeast gene YDL222C, cultured two hours with substance",7.1
same,The level of expressed mRNA in the presence of chemical substance/The level of expressed mRNA in the absence of chemical substance,"yeast gene YDR031W, cultured two hours with substance",0.8
same,The level of expressed mRNA in the presence of chemical substance/The level of expressed mRNA in the absence of chemical substance,"yeast gene YDR032C, cultured two hours with substance",1.3
same,level of expressed mRNA in the presence of chemical substance / level in the absence of chemical substance,"yeast gene YDR090C, cultured two hours with the chemical substance",1.1
same,level of expressed mRNA in the presence of chemical substance / level in the absence of chemical substance,"yeast gene YDR128W, cultured two hours with the chemical substance",1.4
same,level of expressed mRNA in the presence of chemical substance / level in the absence of chemical substance,"yeast gene YDR133C, cultured two hours with the chemical substance",0.6
same,level of expressed mRNA in the presence of chemical substance / level in the absence of chemical substance,"yeast gene YDR250C, cultured two hours with the chemical substance",0.7
same,level of expressed mRNA in the presence of chemical substance / level in the absence of chemical substance,"yeast gene YDR278C, cultured two hours with the chemical substance",0.7
same,level of expressed mRNA in the presence of chemical substance / level in the absence of chemical substance,"yeast gene YDR281C, cultured two hours with the chemical substance",0.3
same,level of expressed mRNA in the presence of chemical substance / level in the absence of chemical substance,"yeast gene YDR366C, cultured two hours with the chemical substance",1.4
same,The level of expressed mRNA in the presence of chemical substance/The level of expressed mRNA in the absence of chemical substance,"yeast gene YDR434W, cultured two hours with substance",1.3
same,The level of expressed mRNA in the presence of chemical substance/The level of expressed mRNA in the absence of chemical substance,"yeast gene YDR476C, cultured two hours with substance",2.2
same,The level of expressed mRNA in the presence of chemical substance/The level of expressed mRNA in the absence of chemical substance,yeast gene YDR497C (transport facilitation protein gene),10.1
same,The level of expressed mRNA in the presence of chemical substance/The level of expressed mRNA in the absence of chemical substance,"yeast gene YDR511W, cultured two hours with substance",0.8
same,The level of expressed mRNA in the presence of chemical substance/The level of expressed mRNA in the absence of chemical substance,"yeast gene YDR520C, cultured two hours with substance",1.3
same,The level of expressed mRNA in the presence of chemical substance/The level of expressed mRNA in the absence of chemical substance,"yeast gene YER014W, mitochondria-located protein gene, cultured two hours with substance",2.3
same,The level of expressed mRNA in the presence of chemical substance/The level of expressed mRNA in the absence of chemical substance,"yeast gene YER038C, cultured two hours with substance",0.8
same,The level of expressed mRNA in the presence of chemical substance/The level of expressed mRNA in the absence of chemical substance,"yeast gene YER106W, cultured two hours with substance",6.8
same,The level of expressed mRNA in the presence of chemical substance/The level of expressed mRNA in the absence of chemical substance,"yeast gene YER175C, cultured two hours with substance",1.3
same,level of expressed mRNA in the presence of chemical substance / level in the absence of chemical substance,"yeast gene YFR026C, cultured two hours with the chemical substance",2.3
same,The level of expressed mRNA in the presence of chemical substance/The level of expressed mRNA in the absence of chemical substance,"yeast gene YGL037C, cultured two hours with substance",0.8
same,level of expressed mRNA in the presence of chemical substance / level in the absence of chemical substance,"yeast gene YGL088W, cultured two hours with the chemical substance",0.4
same,The level of expressed mRNA in the presence of chemical substance/The level of expressed mRNA in the absence of chemical substance,"yeast gene YGL204C, cultured two hours with substance",0.8
same,The level of expressed mRNA in the presence of chemical substance/The level of expressed mRNA in the absence of chemical substance,"yeast gene YGL259W, cultured two hours with substance",1.3
same,The level of expressed mRNA in the presence of chemical substance/The level of expressed mRNA in the absence of chemical substance,"yeast gene YGR010W, cultured two hours with substance",1.3
same,level of expressed mRNA in the presence of chemical substance / level in the absence of chemical substance,"yeast gene YGR038W, cultured two hours with the chemical substance",1.1
same,level of expressed mRNA in the presence of chemical substance / level in the absence of chemical substance,"yeast gene YGR139W, cultured two hours with the chemical substance",2.3
same,The level of expressed mRNA in the presence of chemical substance/The level of expressed mRNA in the absence of chemical substance,"yeast gene YGR141W, cultured two hours with the substance",2.6
same,The level of expressed mRNA in the presence of chemical substance/The level of expressed mRNA in the absence of chemical substance,"yeast gene YGR142W, cultured two hours with substance",1.3
same,The level of expressed mRNA in the presence of chemical substance/The level of expressed mRNA in the absence of chemical substance,"yeast gene YGR153W, cultured two hours with substance",1.3
same,level of expressed mRNA in the presence of chemical substance / level in the absence of chemical substance,"yeast gene YGR243W, cultured two hours with the chemical substance",0.8
same,level of expressed mRNA in the presence of chemical substance / level in the absence of chemical substance,"yeast gene YGR293C, cultured two hours with the chemical substance",0.7
same,level of expressed mRNA in the presence of chemical substance / level in the absence of chemical substance,"yeast gene YHL006C, cultured two hours with the chemical substance",0.6
same,level of expressed mRNA in the presence of chemical substance / level in the absence of chemical substance,"yeast gene YHR095W, cultured two hours with the chemical substance",0.8
same,level of expressed mRNA in the presence of chemical substance / level in the absence of chemical substance,"yeast gene YHR105W, cultured two hours with the chemical substance",0.9
same,The level of expressed mRNA in the presence of chemical substance/The level of expressed mRNA in the absence of chemical substance,"yeast gene YHR138C, cultured two hours with substance",2.2
same,The level of expressed mRNA in the presence of chemical substance/The level of expressed mRNA in the absence of chemical substance,yeast gene YHR142W,4.8
same,level of expressed mRNA in the presence of chemical substance / level in the absence of chemical substance,"yeast gene YHR181W, cultured two hours with the chemical substance",1.4
same,The level of expressed mRNA in the presence of chemical substance/The level of expressed mRNA in the absence of chemical substance,"yeast gene YIL041W, cultured two hours with substance",1.3
same,The level of expressed mRNA in the presence of chemical substance/The level of expressed mRNA in the absence of chemical substance,"yeast gene YIL060W, cultured two hours with substance",1.3
same,The level of expressed mRNA in the presence of chemical substance/The level of expressed mRNA in the absence of chemical substance,"yeast gene YIL117C, cultured two hours with substance",7.5
same,level of expressed mRNA in the presence of chemical substance / level in the absence of chemical substance,"yeast gene YIL127C, cultured two hours with the chemical substance",0.7
same,The level of expressed mRNA in the presence of chemical substance/The level of expressed mRNA in the absence of chemical substance,"yeast gene YIL143C, DNA repair protein genes, cultured two hours with substance",1.3
same,The level of expressed mRNA in the presence of chemical substance/The level of expressed mRNA in the absence of chemical substance,"yeast gene YIR041W, cultured two hours with the chemical substance",1.3
same,level of expressed mRNA in the presence of chemical substance / level in the absence of chemical substance,"yeast gene YJL017W, cultured two hours with the chemical substance",1.1
same,The level of expressed mRNA in the presence of chemical substance/The level of expressed mRNA in the absence of chemical substance,yeast gene YJL034W (transport facilitation protein gene),7.9
same,level of expressed mRNA in the presence of chemical substance / level in the absence of chemical substance,"yeast gene YJL037W, cultured two hours with the chemical substance",1.6
same,The level of expressed mRNA in the presence of chemical substance/The level of expressed mRNA in the absence of chemical substance,"yeast gene YJL066C, cultured two hours with substance",1.3
same,level of expressed mRNA in the presence of chemical substance / level in the absence of chemical substance,"yeast gene YJL097W, cultured two hours with the chemical substance",1.1
same,The level of expressed mRNA in the presence of chemical substance/The level of expressed mRNA in the absence of chemical substance,"yeast gene YJL108C, cultured two hours with substance",4.0
same,The level of expressed mRNA in the presence of chemical substance/The level of expressed mRNA in the absence of chemical substance,"yeast gene YJL149W, cultured two hours with substance",9.0

# Source: patent publication US20100041089A1, “IMPROVED METHOD FOR DETECTING CHEMICAL […]” (priority 2006, published 2010)
